The results in this text go back to patent US9801960B2, “Probe for a biological specimen and labelling method and screening method using the probe” (CANON KABUSHIKI KAISHA, priority 2008, dated 2017).

Series [1] is described as follows: Storage stability of staining compound solution in DMSO. It counts as physicochemical. As to conditions: 10 ng/mL in DMSO, closed glass container, normal temperature, 1 month; rate of change of absorbance and fluorescence intensity. The essentials:
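Compounds held as 10 ng/mL DMSO solutions in closed glass containers at normal temperature for 1 month. Rates of change in absorbance and fluorescence intensity at a given wavelength versus start were scored: +++ <5%, ++ 5–15%, − >15%.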

The next series has as its system Zebrafish juveniles. As to the kind of experiment: In vivo labelling of Zebrafish juveniles with probe for biological specimen. More on the design: key to Staining property: +++: stained; −: no stained; key to Fluorescence sensitivity: +++: strongly observed; ++: moderately observed; +: weakly observed; −: no stained. To be noted: 1 hour; for Fluorescence sensitivity / Staining property: 10 ng/mL; for Fluorescence sensitivity: fluorescence intensity visually evaluated; for Staining property: visually evaluated; for Site(s) to be labelled: 10 ng/mL in water, stereoscopic microscope. The gist of the method: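 Five zebrafish juveniles were immersed in distilled water containing staining compound at 10 ng/mL (DMSO solution) for 1 hour. They were then washed three times with Egg Water, immobilised in 3% methylcellulose and imaged by stereomicroscope. Staining and fluorescence intensity were scored visually on a +++ to − scale.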

Another series concerns Zebrafish liver section. Kind of series: Ex vivo labelling: tissue section of stained Zebrafish. More on the design: key to Staining property: +++: stained; −: no stained; key to Fluorescence sensitivity: +++: strongly observed; ++: moderately observed; +: weakly observed; −: no stained. To be noted: 50 μm, fish stained as in Example 5, PFA fixed. As for the experimental part: Zebrafish which had been stained by the operation in Example 5 was taken out and fixed with a 4% solution of paraformaldehyde (PFA) in PBS. After that, a tissue section having a thickness of 50 μm was prepared with a linear slicer PRO7 (manufactured by Dosaka EM Co., Ltd.) (Table 3). The section was collected on an MAS-coated slide glass (manufactured by Matsunami Glass Ind., Ltd.), mounted with Fluoromount G (manufactured by Southern Biotechnology), and then covered with a cover glass.

Series [2] in a line: Excitation and fluorescence emission wavelength measurement. The format is physicochemical. More on the design: Stokes shift (λem − λex): unit not given here. As to conditions: aqueous solution: 10 mg/mL solution in DMSO diluted 500-fold with purified water. As for the experimental part: It should be noted that the excitation wavelength and the fluorescence emission wavelength of the staining compound were determined by measuring an aqueous solution, which had been obtained by diluting 500-fold a 10 mg/mL solution of the staining compound in DMSO with purified water, with a fluorescence spectrophotometer FL 4500 manufactured by Hitachi High-Technologies Corporation.

The subject of series [3] is human small intestine section. Kind of series: In vitro labelling of human frozen tissue section slide. More on the design: key to Staining property: +++: stained; −: no stained; key to Fluorescence sensitivity: +++: strongly observed; ++: moderately observed; +: weakly observed; −: no stained. To be noted: 10 ng/mL aqueous solution, 1 hour. The format is cell-based. The protocol: A human frozen tissue section slide (manufactured by BioChain Institute, Inc.) shown in Table 3 was immersed in a 10 ng/mL aqueous solution of each of the staining compounds shown in Table 3 for 1 hour. Next, the slide was washed three times with PBS for 10 minutes, mounted with Fluoromount G (manufactured by Southern Biotechnology), and then covered with a cover glass.

Take `COc1ccc2cc(N3c4ccc(/C=C(\C#N)C(=O)O)cc4C4CCCC43)ccc2c1` (stereo not shown) [Dye 6]: the Storage stability entry in series [1] was “+++ (rates of change of the absorbance and the fluorescence intensity are less than 5%, and thus, the storage stability is highly excellent)”. In the series with Zebrafish juveniles, the Fluorescence sensitivity result is “+++” and the Staining property entry is given as “+++”. In addition, in the series with Zebrafish liver section, the Fluorescence sensitivity result is on record as “+++” and the Staining property result is on record as “+++”. Besides, in series [2], the Excitation wavelength λex is 474 nm, the Fluorescence emission wavelength λem stood at 610 nm and the “Stokes shift (λem − λex)” value was determined as 136.

Consider `CCN1C(=O)/C(=c2\s/c(=C/c3ccc4c(c3)C3CCCC3N4c3ccc(SC)cc3)c(=O)n2CC(=O)O)SC1=S` (stereo not shown) [Dye 18], for which, in series [1], the Storage stability entry was “+++ (rates of change of the absorbance and the fluorescence intensity are less than 5%, and thus, the storage stability is highly excellent)”. In the series with Zebrafish juveniles, the “Site(s) to be labelled” value was “blood vessel, gallbladder, and gastrointestinal”; the Fluorescence sensitivity result was “+++”; the Staining property entry is given as “+++”. In addition, in series [3], the Fluorescence sensitivity result is given as “+++” and the Staining property result is reported as “+++”. Besides, in series [2], the Excitation wavelength λex turned out to be 570 nm, the Fluorescence emission wavelength λem stood at 699 nm and the “Stokes shift (λem − λex)” value is 129.

Take `C=CCN1C(=O)/C(=c2\s/c(=C/c3ccc4c(c3)C3CCCC3N4c3ccccc3)c(=O)n2CC(=O)O)SC1=S` (stereo not shown) [Dye 133]: in series [1], the Storage stability entry is “+++ (rates of change of the absorbance and the fluorescence intensity are less than 5%, and thus, the storage stability is highly excellent)”. For the same compound, in the series with Zebrafish juveniles, the “Site(s) to be labelled” value is reported as “blood vessel”, the Fluorescence sensitivity result is on record as “+++” and the Staining property entry is given as “+++”. For the same compound, in series [2], the Excitation wavelength λex came to 510 nm, the Fluorescence emission wavelength λem is 690 nm and the “Stokes shift (λem − λex)” value amounted to 180.

Consider `CSc1ccc(N2c3ccc(/C=C(/C#N)C(=O)O)cc3C3CCCC32)cc1` (stereo not shown) [Dye 134], for which the Storage stability result in series [1] is “+++ (rates of change of the absorbance and the fluorescence intensity are less than 5%, and thus, the storage stability is highly excellent)”. In addition, in the series with Zebrafish juveniles, the “Site(s) to be labelled” value is “blood vessel”, the Fluorescence sensitivity entry is on record as “+++” and the Staining property entry is given as “+++”. In addition, in series [2], the Excitation wavelength λex was determined as 440 nm, the Fluorescence emission wavelength λem came out at 600 nm and the “Stokes shift (λem − λex)” value is on record as 160.

Take `CSc1ccc(N2c3ccc(/C=C(/C#N)C(=O)O)cc3C3CCCC32)cc1` (stereo not shown) [Dye 135]: the Storage stability result in series [1] is “+++ (rates of change of the absorbance and the fluorescence intensity are less than 5%, and thus, the storage stability is highly excellent)”. Further, in the series on Zebrafish juveniles, the “Site(s) to be labelled” value is recorded as “blood vessel”, the Fluorescence sensitivity result was “+++” and the Staining property result is on record as “+++”. Also, in series [2], the Excitation wavelength λex worked out at 430 nm, the Fluorescence emission wavelength λem amounted to 600 nm and the “Stokes shift (λem − λex)” value is on record as 170.

As to `C[n+]1c(/C=c2\s/c(=C/c3ccc4c(c3)C3CCCC3N4c3ccc(C=C(c4ccccc4)c4ccccc4)cc3)c(=O)n2CC(=O)O)sc2ccccc21` (stereo not shown) [Dye 136], the Storage stability entry in series [1] is “+++ (rates of change of the absorbance and the fluorescence intensity are less than 5%, and thus, the storage stability is highly excellent)”. Moreover, in the series on Zebrafish juveniles, the “Site(s) to be labelled” value is reported as “gastrointestinal tract”, the Fluorescence sensitivity result is listed as “+++” and the Staining property result is “+++”. Besides, in series [2], the Excitation wavelength λex is 560 nm, the Fluorescence emission wavelength λem is 760 nm and the “Stokes shift (λem − λex)” value turned out to be 200.

On to `CCn1c(=O)/c(=C\c2ccc3c(c2)C2CCCC2N3c2ccccc2)s/c1=C1/SC(=S)N(CC(=O)O)C1=O` (stereo not shown) [Dye 137], for which the Storage stability result in series [1] is “+++ (rates of change of the absorbance and the fluorescence intensity are less than 5%, and thus, the storage stability is highly excellent)”. For the same compound, in the series with Zebrafish juveniles, the “Site(s) to be labelled” value was “gallbladder and gastrointestinal tract”; the Fluorescence sensitivity entry is on record as “+++”; the Staining property result is recorded as “+++”. Also, in series [2], the Excitation wavelength λex is 590 nm, the Fluorescence emission wavelength λem is 700 nm and the “Stokes shift (λem − λex)” value was 110.

In the case of `CCN1C(=O)/C(=c2\s/c(=C/c3ccc4c(c3)C3CCCC3N4c3cccc(SC)c3)c(=O)n2CC(=O)O)SC1=S` (stereo not shown) [Dye 138], in series [1], the Storage stability entry is “+++ (rates of change of the absorbance and the fluorescence intensity are less than 5%, and thus, the storage stability is highly excellent)”. Also, in the series on Zebrafish juveniles, the “Site(s) to be labelled” value is reported as “gastrointestinal tract”, the Fluorescence sensitivity entry is on record as “+++” and the Staining property entry was “+++”. In series [2], the Excitation wavelength λex came out at 540 nm, the Fluorescence emission wavelength λem was found to be 690 nm and the “Stokes shift (λem − λex)” value is listed as 150.

Turning to `CC[N+]1=C(C=c2s/c(=C/c3ccc4c(c3)C3CCCC3N4c3ccccc3)c(=O)n2CC(=O)O)C(C)(C)c2ccccc21` (stereo not shown) [Dye 139], the Storage stability entry in series [1] was “+++ (rates of change of the absorbance and the fluorescence intensity are less than 5%, and thus, the storage stability is highly excellent)”. Besides, in the series on Zebrafish juveniles, the “Site(s) to be labelled” value is on record as “nose”, the Fluorescence sensitivity entry is reported as “+++” and the Staining property result is given as “+++”. Moreover, in series [2], the Excitation wavelength λex came out at 570 nm, the Fluorescence emission wavelength λem is 640 nm and the “Stokes shift (λem − λex)” value came out at 70.

In the case of `O=C(O)CN1C(=O)/C(=C2C=C/C(=C\c3ccc4c(c3)C3CCCC3N4c3ccccc3)C\2)SC1=S` (stereo not shown) [Dye 140], the Storage stability entry in series [1] was “+++ (rates of change of the absorbance and the fluorescence intensity are less than 5%, and thus, the storage stability is highly excellent)”. For the same compound, in the series on Zebrafish juveniles, the “Site(s) to be labelled” value is listed as “gastrointestinal tract”, the Fluorescence sensitivity result is “+++” and the Staining property result was “+++”. In series [2], the Excitation wavelength λex amounted to 510 nm, the Fluorescence emission wavelength λem is 650 nm and the “Stokes shift (λem − λex)” value was found to be 140.

Regarding `O=C1/C(=C/c2ccc3c(c2)C2CCCC2N3c2ccccc2)Oc2ccc(I)cc21` (stereo not shown) [Dye 141], the Storage stability result in series [1] is “+++ (rates of change of the absorbance and the fluorescence intensity are less than 5%, and thus, the storage stability is highly excellent)”. Besides, in the series on Zebrafish juveniles, the “Site(s) to be labelled” value was “gastrointestinal tract”, the Fluorescence sensitivity result is on record as “+++” and the Staining property entry was “+++”. For the same compound, in series [2], the Excitation wavelength λex worked out at 380 nm, the Fluorescence emission wavelength λem came out at 490 nm and the “Stokes shift (λem − λex)” value is listed as 110.

For the compound `COc1ccc(N2c3ccc(/C=C4\Oc5ccc(I)cc5C4=O)cc3C3CCCC32)cc1` (stereo not shown) [Dye 142], in series [1], the Storage stability result was “+++ (rates of change of the absorbance and the fluorescence intensity are less than 5%, and thus, the storage stability is highly excellent)”. Further, in the series with Zebrafish juveniles, the “Site(s) to be labelled” value was “gastrointestinal tract”, the Fluorescence sensitivity result is “+++” and the Staining property entry was “+++”. In series [2], the Excitation wavelength λex turned out to be 530 nm, the Fluorescence emission wavelength λem is 680 nm and the “Stokes shift (λem − λex)” value is listed as 150.

For the compound `CC1(C)C(/C=C/C=C/C=C/C=C2\N(CCCCS(=O)(=O)O)c3ccc4ccccc4c3C2(C)C)=[N+](CCCCS(=O)(=O)[O-])c2ccc3ccccc3c21` [ICG, indocyanine green, reference compound], the Storage stability result in series [1] was “− (rates of change of the absorbance and fluorescence intensity are more than 15%, and thus, the storage stability is poor)”. Moreover, in the series on Zebrafish juveniles, the “Site(s) to be labelled” value was “liver”, the Fluorescence sensitivity entry is given as “+” and the Staining property entry was “+++”. Further, in series [2], the Excitation wavelength λex stood at 784 nm, the Fluorescence emission wavelength λem turned out to be 811 nm and the “Stokes shift (λem − λex)” value turned out to be 27.
